Target: T1, KRAS G12C 1-169, his-tagged protein, GDP-loaded (Homo sapiens, UniProt P01116, G12C)
T1 construct: KRAS G12C 1-169, his-tagged protein, GDP-loaded
Assay: KRAS G12C covalent binding (% modification) by mass spectrometry, ten or three minute incubation
Method: Test compounds were prepared as 10 mM stock solutions in DMSO (Fisher cat #BP-231-100). KRAS G12C 1-169, his-tagged protein, GDP-loaded was diluted to […] in buffer (20 mM Hepes, 150 mM NaCl, 1 mM MgCl2). Compounds were tested for activity as follows:
Compounds were diluted to 50× final test concentration in DMSO in 96-well storage plates. Compound stock solutions were vortexed before use and observed carefully for any sign of precipitation. Dilutions were as follow: • For 100 μM final compound concentration, compounds were diluted to 5000 μM (5 μl 10 mM compound stock+5 μl DMSO and mixed well by pipetting. • For 30 μM final compound concentration, compounds were diluted to 1500 μM (3 μl 10 mM compound stock+17 μl DMSO) and mixed well by pipetting. • For 10 μM final compound concentration, compounds were diluted to 500 μM (2 μl 10 mM compound stock+38 μl DMSO) and mixed well by pipetting. 49 μl of the stock protein solution was added to each well of a 96-well PCR plate (Fisher cat #1423027). 1 μl of the diluted 50× compounds were added to appropriate wells in the PCR plate using 12-channel pipettor. Reactions were mixed carefully and thoroughly by pipetting up/down with a 200 μl multi-channel pipettor. […] 5 μl of 2% formic acid (Fisher cat #A117) in DI H2O was then added to each well followed by mixing with a pipette. The plate was then resealed with aluminum seal and stored on dry ice until analyzed as described below.
The above described assays were analyzed by mass spectrometry according to one of the following two procedures:
The MS instrument is set to positive polarity, 2 GHz resolution, and low mass (1700) mode and allowed to equilibrate for 30 minutes. The instrument is then calibrated, switched to acquisition mode and the appropriate method loaded.
After another 30 minute equilibration time, a blank batch (i.e., buffer) is run to ensure equipment is operating properly. The samples are thawed at 37° C. for 10 minutes, briefly centrifuged, and transfer to the bench top. Wells A1 and H12 are spiked with 1 μL 500 μM internal standard peptide, and the plates centrifuged at 2000×g for 5 minutes. The method is then run and masses of each individual well recorded.
The masses (for which integration data is desired) for each well are pasted into the platemap and exported from the analysis. Masses for the internal standards are exported as well. The data at 50 ppm is extracted for the +19 charge state, and identity of well A1 is assigned using the internal standard spike and integrated. Peak data is exported as a TOF list and the above steps are repeated individually, for the +20, 21, 22, 23, 24, and 25 charge states.
The masses and peak intensities of KRAS G12C protein species were measured using a Dionex RSLCnano system (Thermo Scientific) connected to a Q Exactive Plus mass spectrometer (Thermo Scientific).
[…] of sample was each loaded onto a Aeris™ 3.6 μm WIDEPORE C4 200 Å, LC Column 50×2.1 mm column maintained at 40° C. at a flow rate of 600 μl min^−1 with […] (0.1% formic acid in acetonitrile). The liquid chromatography conditions were 20% solvent B for 1 min, 20% to 60% solvent B for 1.5 min, 60% to 90% solvent for 0.5 min, 90% solvent B for 0.2 min, 90% to 20% solvent B for 0.2 min, and then equilibrated for 1.6 min before the following sample injection. The flow rate was maintained at 600 μl min^−1 throughout the sample analysis.
The mass spectrometer was operated in profile mode at a resolution of 17500, 5 microscans, using 50 msec max injection time and an AGC target of 1e6, and a full mass range from 800-1850 m/z was recorded. The HCD trapping gas was optimized for maximum sensitivity for intact proteins. The ionization method was electrospray ionization, which used a spray voltage of 4 kV, sheath gas flow set to 50 au, auxiliary gas flow set to 10 au and sweep gas flow set to 1 au. […]

[1] = covalent binding to KRAS G12C, % modification after a three minute incubation period

| SMILES | Binding % [1] | Binding % (covalent binding to KRAS G12C after a ten minute incubation period) |
| --- | --- | --- |
| C=CC(=O)N1C[C@H](C)N(c2nc(N3CC(N(C)C)C3)nc3c(F)c(-c4c[nH]c5ccccc45)c(Cl)cc23)C[C@H]1C [Compound 285, 1-((2R,5S)-4-(6-chloro-2-(3-(dimethylamino)azetidin-1-yl)-8-fluoro-7-(1H-indol-3-yl)quinazolin-4-yl)-2,5-dimethylpiperazin-1-yl)prop-2-en-1-one] | + (+ indicates binding activity greater than 0% and up to 50%) |  |
| C=CC(=O)N1C[C@H](C)N(c2nc(N3CC(N(C)C)C3)nc3c(F)c(-c4c(C)ccc5[nH]cnc45)c(Cl)cc23)C[C@H]1C [Compound 273, 1-((2R,5S)-4-(6-chloro-2-(3-(dimethylamino)azetidin-1-yl)-8-fluoro-7-(5-methyl-1H-benzo[d]imidazol-4-yl)quinazolin-4-yl)-2,5-dimethylpiperazin-1-yl)prop-2-en-1-one] | +++ (+++ indicates binding activity greater than 90%) |  |
| C=CC(=O)N1C[C@H](C)N(c2nc(N3CC(N(C)C)C3)nc3c(F)c(-c4c(O)cccc4F)c(C(F)(F)F)cc23)C[C@H]1C [Compound 206, 1-((2R,5S)-4-(2-(3-(dimethylamino)azetidin-1-yl)-8-fluoro-7-(2-fluoro-6-hydroxyphenyl)-6-(trifluoromethyl)quinazolin-4-yl)-2,5-dimethylpiperazin-1-yl)prop-2-en-1-one] | +++ (+++ indicates binding activity greater than 90%) |  |
| C=CC(=O)N1C[C@H](C)N(c2nc(OCCn3ccccc3=O)nc3c(F)c(-c4c(O)cccc4F)c(Cl)cc23)C[C@H]1C (atropisomer, axis not shown) [Compound 265, 1-(2-(4-((2S,5R)-4-acryloyl-2,5-dimethylpiperazin-1-yl)-6-chloro-8-fluoro-7-((S)-2-fluoro-6-hydroxyphenyl)quinazolin-2-yloxy)ethyl)pyridin-2(1H)-one] | +++ (+++ indicates binding activity greater than 90%) |  |
| C=CC(=O)N1C[C@H](C)N(c2nc(OCCn3cncn3)nc3c(F)c(-c4c(O)cccc4F)c(Cl)cc23)C[C@H]1C (atropisomer, axis not shown) [Compound 259, 1-((2R,5S)-4-(2-(2-(1H-1,2,4-triazol-1-yl)ethoxy)-6-chloro-8-fluoro-7-((S)-2-fluoro-6-hydroxyphenyl)quinazolin-4-yl)-2,5-dimethylpiperazin-1-yl)prop-2-en-1-one] | +++ (+++ indicates binding activity greater than 90%) |  |
| C=CC(=O)N1C[C@H](C)N(c2nc(OCCN3CC(F)(F)C3)nc3c(F)c(-c4c(O)cccc4F)c(Cl)cc23)C[C@H]1C (atropisomer, axis not shown) [Compound 84, 1-((2R,5S)-4-((S)-6-chloro-2-(2-(3,3-difluoroazetidin-1-yl)ethoxy)-8-fluoro-7-(2-fluoro-6-hydroxyphenyl)quinazolin-4-yl)-2,5-dimethylpiperazin-1-yl)prop-2-en-1-one] |  | +++ (+++ indicates binding activity greater than 90%) |
| C=CC(=O)N1C[C@H](C)N(c2nc(OCCc3nccn3C)nc3c(F)c(-c4c(O)cccc4F)c(Cl)cc23)C[C@H]1C (atropisomer, axis not shown) [Compound 288, 1-((2R,5S)-4-((S)-6-chloro-8-fluoro-7-(2-fluoro-6-hydroxyphenyl)-2-(2-(1-methyl-1H-imidazol-2-yl)ethoxy)quinazolin-4-yl)-2,5-dimethylpiperazin-1-yl)prop-2-en-1-one] | +++ (+++ indicates binding activity greater than 90%) |  |
| C=CC(=O)N1CCN(c2nc(N3CC(N(C)C)C3)nc3c(F)c(-c4c(O)cccc4F)c(C(F)(F)F)cc23)C[C@H]1C (atropisomer, axis not shown) [Compound 271, 1-((R)-4-(2-(3-(dimethylamino)azetidin-1-yl)-8-fluoro-7-((S)-2-fluoro-6-hydroxyphenyl)-6-(trifluoromethyl)quinazolin-4-yl)-2-methylpiperazin-1-yl)prop-2-en-1-one] | + (+ indicates binding activity greater than 0% and up to 50%) |  |

— US11021470B2, “2-substituted quinazoline compounds comprising a substituted heterocyclic group and methods of use thereof” (Araxes Pharma LLC, priority 2015, dated 2021)
